Experimental findings from ChEMBL document CHEMBL1156552, “Novel ligands rationally designed for characterizing I2-imidazoline binding sites nature and functions” (J Med Chem, 2008) are described below.

Active and inactive are the calls of the source. The calls are words filed in the database; no cut-off is given here.

Experiment [1] in a line: Displacement of [3H]RX821002 from Adrenergic alpha2 receptor in Sprague-Dawley rat whole brain membrane. A general note: Displacement assays read how much labelled ligand stays bound in the presence of the test substance.
In experiment [2] the test system is Mus musculus. Nature of the experiment: Increase in morphine-induced analgesia in CD1 mouse at 10 mg/kg, sc after 30 mins by tail flick test relative to control. The format is functional. Conditions: route subcutaneous.
Experiment [3] concerns Mus musculus. Nature of the experiment: Antinociceptive activity in CD1 mouse at 10 mg/kg, sc after 30 mins by tail flick test. Further details: dose 10 mg/kg. Type of experiment: functional, organism-based. (In general: Hot-plate and tail-flick tests time the reaction to a heat stimulus.)
Experiment [4] is described as follows: Displacement of [3H]2-BFI from Imidazoline receptor 2 in Sprague-Dawley rat whole brain membrane.
The species named for experiment [5] is Rattus norvegicus. Nature of the experiment: Selectivity ratio, IC50 for Imidazoline receptor 1 in Sprague-Dawley rat kidney membrane to Ki for alpha2 adrenoceptor in Sprague-Dawley rat whole brain membrane. Type of experiment: cell membranes.
The target of experiment [6] is T1, Nischarin (Rattus norvegicus, UniProt Q4G017). Nature of the experiment: Displacement of [3H]clonidine from Imidazoline receptor 1 in Sprague-Dawley rat kidney membrane. Type of experiment: cell membranes.
The species entered for experiment [7] is Rattus norvegicus. Description: Selectivity ratio, IC50 for Imidazoline receptor 1 in Sprague-Dawley rat kidney membrane to Ki for Imidazoline receptor 2 in Sprague-Dawley rat whole brain membrane. The format is cell membranes.
Experiment [8] deals with Mus musculus. Nature of the experiment: Decrease in morphine-induced analgesia in CD1 mouse at 10 mg/kg, sc after 30 mins by tail flick test relative to control. Type of experiment: functional. Details: scale not given: the % may be the effect or the level left. Conditions: route subcutaneous.
Experiment [9] deals with Mus musculus. Description: Effect on morphine-induced analgesia in efaroxan pretreated CD1 mouse at 10 mg/kg, sc by tail flick test. Type of experiment: functional, organism-based. Further details: dose 10 mg/kg.
In experiment [10] the test system is Mus musculus. Nature of the experiment: Reversal of decrease in morphine-induced analgesia in idazoxan pretreated CD1 mouse at 10 mg/kg, sc by tail flick assay. The format is functional, organism-based. Further details: dose 10 mg/kg.
Experiment [11] is described as follows: Binding affinity to Imidazoline receptor 2.
The test system of experiment [12] is Mus musculus. Description: Effect on morphine-induced analgesia in yohimbine pretreated CD1 mouse at 10 mg/kg, sc by tail flick test. Details: dose 10 mg/kg. Type of experiment: functional, organism-based.
Experiment [13] deals with T1, Nischarin. Nature of the experiment: Displacement of [3H]clonidine from Imidazoline receptor 1 rat PC-12 cells. The format is cell-based.
The test system of experiment [14] is Mus musculus. Nature of the experiment: Antinociceptive activity in CD1 mouse at 20 mg/kg, sc after 30 mins by tail flick test. Type of experiment: functional, organism-based. Details: dose 20 mg/kg.
Experiment [15] has as its system Mus musculus. Description: Decrease in morphine-induced analgesia in CD1 mouse at 20 mg/kg, sc after 30 mins by tail flick test relative to control. Type of experiment: functional. Further details: scale not given: the % may be the effect or the level left. Conditions: route subcutaneous.

T1 sequence (Q4G017 whole entry): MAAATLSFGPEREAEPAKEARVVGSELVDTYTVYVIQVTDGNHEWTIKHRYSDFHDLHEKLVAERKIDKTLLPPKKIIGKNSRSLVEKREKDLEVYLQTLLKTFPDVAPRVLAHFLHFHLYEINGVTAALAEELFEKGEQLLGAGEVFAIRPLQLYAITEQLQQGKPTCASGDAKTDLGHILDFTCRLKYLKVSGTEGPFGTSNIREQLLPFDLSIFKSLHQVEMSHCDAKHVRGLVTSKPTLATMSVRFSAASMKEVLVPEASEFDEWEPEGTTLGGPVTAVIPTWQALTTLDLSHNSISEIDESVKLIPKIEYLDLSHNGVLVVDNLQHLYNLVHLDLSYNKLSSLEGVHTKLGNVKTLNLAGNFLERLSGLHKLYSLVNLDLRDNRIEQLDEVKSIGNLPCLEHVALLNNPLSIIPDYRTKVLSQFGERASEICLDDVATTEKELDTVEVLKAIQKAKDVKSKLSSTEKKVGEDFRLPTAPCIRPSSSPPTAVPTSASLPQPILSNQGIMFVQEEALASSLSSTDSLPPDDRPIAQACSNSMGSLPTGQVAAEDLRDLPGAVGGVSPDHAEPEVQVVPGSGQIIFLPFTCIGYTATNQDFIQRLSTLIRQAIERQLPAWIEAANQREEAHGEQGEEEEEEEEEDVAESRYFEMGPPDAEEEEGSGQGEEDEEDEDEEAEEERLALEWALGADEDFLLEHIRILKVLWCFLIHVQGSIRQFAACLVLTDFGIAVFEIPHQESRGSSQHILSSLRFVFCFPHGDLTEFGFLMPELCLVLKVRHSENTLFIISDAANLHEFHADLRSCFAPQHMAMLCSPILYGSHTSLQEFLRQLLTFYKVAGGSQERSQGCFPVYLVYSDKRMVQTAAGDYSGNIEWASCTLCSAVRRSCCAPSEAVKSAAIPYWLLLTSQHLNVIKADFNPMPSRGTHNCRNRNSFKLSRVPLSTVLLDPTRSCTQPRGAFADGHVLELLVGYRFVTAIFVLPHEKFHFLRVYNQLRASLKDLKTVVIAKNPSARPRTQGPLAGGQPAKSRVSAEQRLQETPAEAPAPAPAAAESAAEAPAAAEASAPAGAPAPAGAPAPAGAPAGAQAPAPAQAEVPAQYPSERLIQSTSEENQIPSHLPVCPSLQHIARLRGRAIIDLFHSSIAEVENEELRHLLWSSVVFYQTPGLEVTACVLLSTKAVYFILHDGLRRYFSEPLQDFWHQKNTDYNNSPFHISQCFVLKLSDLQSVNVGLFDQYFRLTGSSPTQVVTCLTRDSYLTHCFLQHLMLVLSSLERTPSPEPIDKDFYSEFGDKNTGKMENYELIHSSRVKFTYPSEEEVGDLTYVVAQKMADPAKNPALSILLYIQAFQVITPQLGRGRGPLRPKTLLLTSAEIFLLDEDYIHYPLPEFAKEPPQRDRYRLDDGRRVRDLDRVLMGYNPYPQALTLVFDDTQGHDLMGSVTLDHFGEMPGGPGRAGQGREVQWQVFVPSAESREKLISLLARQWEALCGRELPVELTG

As usually defined, the Ki is the dissociation constant of the complex between target and ligand, obtained from inhibition or displacement. As usually defined, the IC50 is the point on the concentration scale where inhibition reaches its midpoint. On to `c1cncc(CCC2=NCCN2)c1`, for which the figures for the Ki in [1] and in experiment [4] were 64.8 µM and 0.414 µM, respectively. Further, in the experiment with Mus musculus [2], the Activity worked out at 23%. The result in the experiment on Mus musculus [3] was inactive. Besides, the figures for the Ratio in the experiment listed under Rattus norvegicus [5] and in the experiment listed under Rattus norvegicus [7] were 157 and 512, respectively. In addition, the IC50 at Nischarin [6] was determined as 212 µM.
`Clc1ccccc1CCC1=NCCN1`: the Activity with Mus musculus [8] is recorded as -34%. Also, the inhibition constant (Ki) in experiment [1] is 0.295 µM; in experiment [4], 0.0015 µM. Also, the result in the experiment on Mus musculus [3] was inactive. Also, the Ratio in the experiment listed under Rattus norvegicus [5] was 197; in the experiment filed under Rattus norvegicus [7], 2840. This molecule also yielded an IC50 on Nischarin [6] of 4.26 µM.
With `Cc1ccccc1CCC1=NCCN1`, in the experiment on Mus musculus [8], the Activity is on record as -44%. Moreover, the figures for the Ki in experiment [1] and in experiment [4] were 0.558 µM and 0.00168 µM, respectively. For the same molecule, the outcome in the experiment with Mus musculus [3] was inactive. For the same molecule, the Ratio in the experiment filed under Rattus norvegicus [5] stood at 332; in the experiment filed under Rattus norvegicus [7], 4380. Also, the IC50 at Nischarin [6] was determined as 7.36 µM.
Consider `c1c[nH]c(CCC2=NCCN2)c1`, for which the Ki in experiment [1] came out at 3.54 µM; in experiment [4] it was 0.254 µM. Further, in the experiment with Mus musculus [2], the Activity was 14%. For the same molecule, in the experiment with Mus musculus [3], the result was inactive. The Ratio in the experiment filed under Rattus norvegicus [5] was found to be 13.9; in the experiment filed under Rattus norvegicus [7] it was 94. At Nischarin [6], this molecule gave an IC50 of 23.9 µM.
As to `c1ccc(-c2ccsc2)c(CCC2=NCCN2)c1`, the Activity in the experiment with Mus musculus [8] was -59%. The Ki in experiment [1] stood at 0.293 µM; in [4], 0.00889 µM. In addition, the result in the experiment on Mus musculus [3] was inactive. Moreover, the Ratio worked out at 32.9 in the experiment listed under Rattus norvegicus [5] and 775 in the experiment filed under Rattus norvegicus [7]. The same molecule registered an IC50 at Nischarin [6] of 6.89 µM.
`C1CCC(CCC2=NCCN2)CC1`: the Ki in [1] is 2.96 µM; in [4], 0.0048 µM. Further, in the experiment on Mus musculus [2], the Activity came out at 30%. Besides, the outcome with Mus musculus [3] was inactive. The Ratio in the experiment listed under Rattus norvegicus [5] turned out to be 617; in the experiment filed under Rattus norvegicus [7] it was 744. For the same molecule, the concentration for half-maximal inhibition (IC50) at Nischarin [6] stood at 3.57 µM.
Turning to `Oc1ccccc1CCC1=NCCN1`, the Activity with Mus musculus [8] was -26%. Besides, the Ki in experiment [1] amounted to 0.926 µM; in [4], 0.0735 µM. The outcome in the experiment with Mus musculus [3] was inactive. The Ratio in the experiment listed under Rattus norvegicus [5] is 12.6; in the experiment filed under Rattus norvegicus [7] it was 99.3. At Nischarin [6], the IC50 amounted to 7.3 µM.
One may read the pKi as the Ki on a negative log10 scale, so that one unit is a factor of ten. As for `c1ccc(-c2ccccc2CCC2=NCCN2)cc1`, the result in the experiment on Mus musculus [9] and in the experiment with Mus musculus [12] was inactive. Further, the Activity in the experiment on Mus musculus [8] was -41%. For the same molecule, in the experiment on Mus musculus [10], the result was Active. In [11], this molecule yielded a pKi of 6.8. Further, the figures for the Ki (in [1]; at Nischarin [13]; in [4]) were 7.13 µM, 6.34 µM and 0.159 µM, respectively. Besides, the results for the Ratio in the experiment filed under Rattus norvegicus [5] and in the experiment filed under Rattus norvegicus [7] were 45 and 40, respectively.
As to `c1ccc2c(CCC3=NCCN3)cccc2c1`, the Ki stood at 0.381 µM in experiment [1] and 0.00116 µM in experiment [4]. Also, in the experiment with Mus musculus [2], the Activity turned out to be 16%. The result in the experiment on Mus musculus [3] was inactive. Further, the Ratio in the experiment listed under Rattus norvegicus [5] was determined as 328; in the experiment listed under Rattus norvegicus [7] it was 22300. At Nischarin [6], this molecule returned an IC50 of 25.8 µM.
For the molecule `O=[N+]([O-])c1cccc(-c2ccccc2CCC2=NCCN2)c1`, the outcome in the experiment on Mus musculus [14] was inactive. Moreover, the Ki in experiment [1] was 1.12 µM; in experiment [4], 0.252 µM. Besides, in the experiment with Mus musculus [15], the Activity is given as -29%. The values for the Ratio in the experiment filed under Rattus norvegicus [5] and in the experiment filed under Rattus norvegicus [7] were 4.4 and 16, respectively. Moreover, at Nischarin [6], the IC50 turned out to be 4 µM.
Regarding `c1ccc(CCC2=NCCN2)cc1` [PHENYZOLINE], the result in the experiment on Mus musculus [9] and with Mus musculus [12] was inactive. The result with Mus musculus [10] was Active. Further, the pKi in experiment [11] is 8.6. Further, the inhibition constant Ki in [1] came out at 1.99 µM; in experiment [4] it was 0.0025 µM. The Activity in the experiment with Mus musculus [2] is given as 60%. In addition, the Ratio in the experiment filed under Rattus norvegicus [5] amounted to 794; in the experiment filed under Rattus norvegicus [7], 1480.
As to `c1csc(CCC2=NCCN2)c1`, the Ki in experiment [1] was found to be 0.82 µM; in experiment [4], 0.00772 µM. Further, in the experiment with Mus musculus [2], the Activity came out at 34%. The result in the experiment on Mus musculus [3] was inactive. In addition, the Ratio in the experiment listed under Rattus norvegicus [5] worked out at 106; in the experiment listed under Rattus norvegicus [7], 373. At Nischarin [6], this molecule yielded an IC50 of 2.88 µM.
